Results on 29 compounds are retold here after patent publication US12162888B2, “Carboxamides as ubiquitin-specific protease inhibitors” (Valo Early Discovery, Inc., priority 2018, dated 2024).

The assay deals with T1, USP25 (USP25-His6, Boston Biochem E-546) (Homo sapiens, UniProt Q9UHP3).
T1 construct: His6 (C); purchased Boston Biochem E-546
T1 sequence (Q9UHP3 1-1055): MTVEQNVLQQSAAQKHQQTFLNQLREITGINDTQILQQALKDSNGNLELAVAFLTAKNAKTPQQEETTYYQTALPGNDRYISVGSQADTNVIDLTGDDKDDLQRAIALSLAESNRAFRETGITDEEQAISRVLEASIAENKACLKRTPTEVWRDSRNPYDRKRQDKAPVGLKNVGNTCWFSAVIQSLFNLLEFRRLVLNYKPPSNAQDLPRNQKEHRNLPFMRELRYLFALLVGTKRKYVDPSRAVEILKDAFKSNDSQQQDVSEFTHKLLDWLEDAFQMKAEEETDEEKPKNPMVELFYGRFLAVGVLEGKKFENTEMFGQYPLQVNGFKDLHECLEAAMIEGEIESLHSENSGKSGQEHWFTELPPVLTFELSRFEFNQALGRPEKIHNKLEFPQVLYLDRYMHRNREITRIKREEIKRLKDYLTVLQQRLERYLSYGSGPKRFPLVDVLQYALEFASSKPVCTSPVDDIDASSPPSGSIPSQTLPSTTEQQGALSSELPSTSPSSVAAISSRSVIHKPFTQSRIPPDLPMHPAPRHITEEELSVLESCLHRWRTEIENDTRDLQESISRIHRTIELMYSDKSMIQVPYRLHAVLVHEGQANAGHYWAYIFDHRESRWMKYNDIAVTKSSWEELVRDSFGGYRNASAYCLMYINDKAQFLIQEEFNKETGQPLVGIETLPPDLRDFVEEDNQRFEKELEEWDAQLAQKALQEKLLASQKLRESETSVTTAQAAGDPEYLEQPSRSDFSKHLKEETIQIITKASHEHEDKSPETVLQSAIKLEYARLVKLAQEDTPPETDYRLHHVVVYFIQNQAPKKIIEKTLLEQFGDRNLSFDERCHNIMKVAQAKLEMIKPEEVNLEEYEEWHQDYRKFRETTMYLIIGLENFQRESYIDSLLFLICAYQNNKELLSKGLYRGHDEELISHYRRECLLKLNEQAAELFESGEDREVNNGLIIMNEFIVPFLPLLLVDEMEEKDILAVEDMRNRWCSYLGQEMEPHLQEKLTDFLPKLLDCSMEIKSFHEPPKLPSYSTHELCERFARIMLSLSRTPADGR
As to the kind of experiment: Ubiquitin-Rhodamine 110 Assay for USP25 Activity, Example A-3. It counts as biochemical. Conditions: Ubiquitin-Rhodamine 110 assay, Example A-3. The procedure, abridged: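 USP25-His6 ([…] final as stated) preincubated 30 min with compound (10-point, 25 μM to 1.3 nM), then Ub-Rh110 at 25 nM (<<Km) added in pH 8.0 Tris buffer with BME, BGG and Triton X-100. Reaction stopped after 45 min at room temperature with 10 mM citric acid; fluorescence read at 485/535 nm.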

Where [1] appears, read: biochemical IC50 range, read-out: USP25 A-3.

Like-named read-outs stand apart in the source and are kept apart here.

As to `CN[C@@H]1CN(c2ccc3c(n2)CC[C@H](NC(=O)c2sc4nc(C)ccc4c2N)C3)C[C@@H]1CF` [Example 442, 3-amino-N-[(6S)-2-[(3S,4S)-3-(fluoromethyl)-4-(methylamino)pyrrolidin-1-yl]-5,6,7,8-tetrahydroquinolin-6-yl]-6-methylthieno[2,3-b]pyridine-2-carboxamide], for the setting “read-out: USP25 A-3 IC50 range”, the IC50 was over 2000 nM.

As to `CCn1ccc2cc(C(=O)N[C@H]3CCc4nc(N5C[C@@H](COC)[C@@H](N)C5)ccc4C3)cnc21` (single isomer, unassigned) [Example 400], the IC50 (read-out: USP25 A-3 IC50 range) was over 2000 nM.

`Cc1ccc2c(N)c(C(=O)N[C@H]3COc4cc(N5C[C@H](N)[C@@]6(CCOC6)C5)ccc4C3)sc2n1` (single isomer, unassigned) [Example 439]: for the setting “read-out: USP25 A-3 IC50 range”, the IC50 lay within 200 to 2000 nM.

Take `Cc1ccc2c(N)c(C(=O)N[C@@H]3CCc4c(C#N)c(N5CC6CNCC(C5)O6)cc(F)c4C3)sc2n1` (single isomer, unassigned) [Example 14-16]: under “read-out: USP25 A-3 IC50 range”, the IC50 lay in the range of 200 to 2000 nM.

`Cc1nc2sc(C(=O)N[C@@H]3CCc4c(C#N)c(N5CCNCC5)cc(F)c4C3)c(N)c2s1` (single isomer, unassigned) [Example 14-13]: the IC50 (read-out: USP25 A-3 IC50 range) is over 2000 nM.

Regarding `O=C(N[C@H]1COc2cc(N3CCNCC3)ccc2C1)c1ccc(NCc2cccc(Cl)c2Cl)nc1` [Example 699, 6-{[(2,3-dichlorophenyl)methyl]amino}-N-[(3R)-7-(piperazin-1-yl)-3,4-dihydro-2H-1-benzopyran-3-yl]pyridine-3-carboxamide], the IC50 under setting [1] lay within 1 to 50 nM.

As to `Cc1cnc2c(N)c(C(=O)N[C@@H]3CCc4cc(N5CCNCC5)ccc4C3)sc2n1` (single isomer, unassigned) [Example 11-20], for the setting “read-out: USP25 A-3 IC50 range”, the IC50 was over 2000 nM.

On to `Cc1ccc2c(N)c(C(=O)N[C@H]3COc4cc(N5CCNCC5)ccc4[C@@H]3C)sc2n1` (single isomer, unassigned) [Example 11-17], for which the IC50 (read-out: USP25 A-3 IC50 range) was over 2000 nM.

`Cc1cnc2c(N)c(C(=O)N[C@H]3CCc4cc(N5CCNCC5)c(F)cc4C3)sc2n1` (single isomer, unassigned) [Example 21-12]: for the setting “read-out: USP25 A-3 IC50 range”, the IC50 was 200 to 2000 nM.

For the compound `Cc1cnc2c(N)c(C(=O)N[C@@H]3CCc4c(C#N)c(N5CCNCC5)cc(F)c4C3)sc2n1` (single isomer, unassigned) [Example 14-11], where the note is “read-out: USP25 A-3 IC50 range”, the IC50 lay within 200 to 2000 nM.

As for `COC1CN(c2ccc3c(c2)CC[C@H](NC(=O)c2sc4nc(C)cnc4c2N)C3)CC1N` (stereo in doubt) [Example 130, 7-amino-N-[(2S)-6-[(3S,4S)-3-amino-4-methoxypyrrolidin-1-yl]-1,2,3,4-tetrahydronaphthalen-2-yl]-3-methylthieno[2,3-b]pyrazine-6-carboxamide], under setting [1], the IC50 fell in the range of 200 to 2000 nM.

On to `Cc1ccc2c(N)c(C(=O)N[C@@H]3CCc4c(C#N)c(N5CCNCC5)cc(F)c4C3)sc2n1` (single isomer, unassigned) [Example 14-9], for which the IC50 (read-out: USP25 A-3 IC50 range) is over 2000 nM.

`Cc1nc2sc(C(=O)N[C@@H]3CCc4cc(N5CCNCC5)ccc4C3)c(N)c2s1` (single isomer, unassigned) [Example 11-34]: the IC50 (read-out: USP25 A-3 IC50 range) is over 2000 nM.

For the compound `Cc1nc2sc(C(=O)N[C@H]3CCc4cc(N5CCNCC5)ccc4C3)c(N)c2s1` (single isomer, unassigned) [Example 11-33], where the note is “read-out: USP25 A-3 IC50 range”, the IC50 was 200 to 2000 nM.

`Cc1ccc2c(N)c(C(=O)N[C@H]3CCc4c(C#N)c(N5CCNCC5)cc(F)c4C3)sc2n1` (single isomer, unassigned) [Example 14-10]: under “read-out: USP25 A-3 IC50 range”, the IC50 was in the range of 200 to 2000 nM.

In the case of `CO[C@H]1CN(c2ccc3c(c2)OC[C@H](NC(=O)c2sc4nc(C)sc4c2N)C3)CC1N` (stereo partly drawn) [Example 118, 6-amino-N-[(3R)-7-[(3,4S)-3-amino-4-methoxypyrrolidin-1-yl]-3,4-dihydro-2H-1-benzopyran-3-yl]-2-methylthieno[2,3-d][1,3]thiazole-5-carboxamide], the IC50 (read-out: USP25 A-3 IC50 range) lay in the range of 200 to 2000 nM.

On to `Cc1ccc2c(N)c(C(=O)N[C@H]3CCc4c(C#N)c(N5CC6CCC(C5)N6)cc(F)c4C3)sc2n1` (single isomer, unassigned) [Example 14-17], for which the IC50 (read-out: USP25 A-3 IC50 range) was in the range of 1 to 50 nM.

For the compound `CN[C@H]1CCN(c2ccc3c(c2)CC[C@H](NC(=O)c2sc4nc(C)cnc4c2N)C3)C1` (single isomer, unassigned) [Example 11-25], under “read-out: USP25 A-3 IC50 range”, the IC50 is 200 to 2000 nM.

`[2H]C1([2H])c2c(F)cc(N3CCNCC3)cc2OC[C@H]1NC(=O)c1sc2nc(C)ccc2c1N` (single isomer, unassigned) [Example 33-2]: the IC50 (read-out: USP25 A-3 IC50 range) is over 2000 nM.

`Cc1ccc2c(N)c(C(=O)N[C@H]3COc4cc(N5C[C@H](N)[C@@](C)(CF)C5)ccc4C3)sc2n1` [Example 659, 3-amino-N-[(3R)-7-[(3S,4R)-4-amino-3-(fluoromethyl)-3-methylpyrrolidin-1-yl]-3,4-dihydro-2H-1-benzopyran-3-yl]-6-methylthieno[2,3-b]pyridine-2-carboxamide]: under setting [1], the IC50 was 50 to 200 nM.

For the compound `Cc1ccc2c(N)c(C(=O)N[C@H]3CCc4nc(N5C[C@@H](N)[C@]6(CCOC6)C5)ccc4C3)sc2n1` [Example 438, 3-amino-N-[(6S)-2-[(5S, 9S)-9-amino-2-oxa-7-azaspiro[4.4]nonan-7-yl]-5,6,7,8-tetrahydroquinolin-6-yl]-6-methylthieno[2,3-b]pyridine-2-carboxamide], the IC50 (read-out: USP25 A-3 IC50 range) was over 2000 nM.

Turning to `Cc1ccc2c(N)c(C(=O)N[C@H]3COc4cc(N5C[C@H](N)[C@](C)(CF)C5)ccc4C3)sc2n1` [Example 658, 3-amino-N-[(3R)-7-[(3R,4R)-4-amino-3-(fluoromethyl)-3-methylpyrrolidin-1-yl]-3,4-dihydro-2H-1-benzopyran-3-yl]-6-methylthieno[2,3-b]pyridine-2-carboxamide], under setting [1], the IC50 is 50 to 200 nM.

Turning to `Cc1cnc2c(N)c(C(=O)N[C@@H]3CCc4cc(N5CCNCC5)cc(F)c4C3)sc2n1` (single isomer, unassigned) [Example 11-37], the IC50 (read-out: USP25 A-3 IC50 range) was over 2000 nM.

`Cc1ccc2c(N)c(C(=O)N[C@H]3CCc4cc(N5C[C@H](CF)[C@H](N)C5)ccc4C3)sc2n1` [Example 657, 3-amino-N-[(2S)-6-[(3S,4S)-3-amino-4-(fluoromethyl)pyrrolidin-1-yl]-1,2,3,4-tetrahydronaphthalen-2-yl]-6-methylthieno[2,3-b]pyridine-2-carboxamide]: under setting [1], the IC50 lay within 200 to 2000 nM.

Take `Cc1ccc2c(N)c(C(=O)N[C@H]3CCc4c(F)c(N5CC6CCC(C5)N6)cc(F)c4C3)sc2n1` (single isomer, unassigned) [Example 22-5]: for the setting “read-out: USP25 A-3 IC50 range”, the IC50 lay within 1 to 50 nM.

For `Cc1cnc2c(N)c(C(=O)N[C@@H]3CCc4c(ccc(N5CCNCC5)c4F)C3)sc2n1` (single isomer, unassigned) [Example 21-9], the IC50 (read-out: USP25 A-3 IC50 range) was in the range of 200 to 2000 nM.

Regarding `COC[C@@]1(C)CN(c2ccc3c(n2)CC[C@H](NC(=O)c2sc4nc(C)ccc4c2N)C3)C[C@H]1N` [Example 343, 3-amino-N-[(6S)-2-[(3S,4S)-4-amino-3-(methoxymethyl)-3-methylpyrrolidin-1-yl]-5,6,7,8-tetrahydroquinolin-6-yl]-6-methylthieno[2,3-b]pyridine-2-carboxamide], the IC50 (read-out: USP25 A-3 IC50 range) is 200 to 2000 nM.

As for `Cc1cnc2c(N)c(C(=O)N[C@H]3CCc4cc(N5CCNCC5)ccc4C3)sc2n1` (single isomer, unassigned) [Example 11-19], the IC50 (read-out: USP25 A-3 IC50 range) was in the range of 200 to 2000 nM.

In the case of `Cc1ccc2c(N)c(C(=O)N[C@@H]3CCc4cc(N5CCNCC5)ccc4C3)sc2n1` (single isomer, unassigned) [Example 11-22], where the note is “read-out: USP25 A-3 IC50 range”, the IC50 was in the range of 200 to 2000 nM.
